Measured values published in PMC8401736, “Identification and In Silico Characterization of Novel Helicobacter pylori Glucose-6-Phosphate Dehydrogenase Inhibitors” (Molecules, 2021).

Columns and labels:
[1] = test system: recombinant HpG6PD (H. pylori glucose-6-phosphate dehydrogenase); experiment: High-throughput screening of HpG6PD residual activity at 400 μM; format: biochemical, Helicobacter pylori; details: 400 μM compound, 5% DMSO, 0.2 mg/mL HpG6PD, 37 °C for two hours
Protocol: (§1) Enzymatic activity was spectrophotometrically determined following the reduction of NADP^+ at 340 nm. The standard reaction mix contains 50 mM Tris-HCl, pH 7.6, 3 mM MgCl2, 200 µM glucose 6 phosphate and 100 µM NADP^+. The reaction was started with the addition of 1 µg of the purified HpG6PD. One unit of activity was defined as the amount of HpG6PD that catalyzes the oxidation of 1 µmol of glucose 6 phosphate per minute.
A chemical library of 55 compounds was evaluated through high-throughput screening (HTS) assays to determine those compounds with the ability to reduce the catalytic activity of the recombinant HpG6PD. Dr. Gabriel Navarrete-Vázquez from the Pharmacy Faculty of the Autonomous University of the State of Morelos provided the chemical compounds [32]. These compounds were selected based on the previously reported chemical inhibitors of human G6PD [21], prepared at a final concentration of 400 μM in 5% dimethyl sulfoxide (DMSO) (Sigma Aldrich, St. Louis, MO, USA), incubated with 0.2 mg/mL of HpG6PD (200 ng total) at 37 °C for two hours, and the HpG6PD residual activity was measured. In addition, the HpG6PD protein was incubated with 5% DMSO and used as a control.

HpG6PD enzyme = HpG6PD enzyme (Helicobacter pylori, UniProt P56110); experiment: Inactivation assays of the HpG6PD enzyme with increasing concentrations of compounds; format: biochemical; details: for inhibition at 800 µM: 2 h, read-out: loss of HpG6PD activity; for IC50: from plots of residual activity after incubation for 2 h at 37 °C, 200 μg/mL HpG6PD; for reduction of HpG6PD activity: at the highest concentration tested
Protocol: Subsequently, we performed inactivation assays using different concentrations of compounds to analyze their concentration–activity effect. […] As each of the compound’s concentrations was increased, the residual HpG6PD activity decreased in different degrees. For example, the exposure of the HpG6PD enzyme to YGC-3 and YGC-4 induced the abolition of the enzyme activity in a very similar manner (Figure 3A), the HpG6PD enzyme lost 80% of its activity at 800 µM, but when the enzyme was incubated with YGC-1, we observed a 91% loss in activity at 800 μM. On the other hand, MGD-1 and MGD-2 inactivated the HpG6PD enzyme, with 80% and 72% reductions, respectively, at the highest concentration tested (Figure 3B). […] In contrast, JMM-3 inhibited the HpG6PD enzyme at 80% with 800 µM (Figure 3D).
Figure 3 Inactivation assays of the HpG6PD enzyme with chemical compounds. The HpG6PD protein was adjusted at a final concentration of 200 μg/mL and incubated with increasing concentrations of the (A) YGC family; (B) MGD family; (C) TDA-1 compound; and (D) JMM-3 compound. The residual activity was determined after 2 h of incubation at 37 °C. […] The values represent the mean ± standard deviation from three independent experiments, and standard errors were lower than 5%.
as §1

recombinant human HsG6PD = recombinant human HsG6PD (Homo sapiens, UniProt P11413); experiment: Inhibition of recombinant human HsG6PD at 400 μM; format: biochemical; details: 400 μM compound
Sequence of recombinant human HsG6PD (P11413 whole entry): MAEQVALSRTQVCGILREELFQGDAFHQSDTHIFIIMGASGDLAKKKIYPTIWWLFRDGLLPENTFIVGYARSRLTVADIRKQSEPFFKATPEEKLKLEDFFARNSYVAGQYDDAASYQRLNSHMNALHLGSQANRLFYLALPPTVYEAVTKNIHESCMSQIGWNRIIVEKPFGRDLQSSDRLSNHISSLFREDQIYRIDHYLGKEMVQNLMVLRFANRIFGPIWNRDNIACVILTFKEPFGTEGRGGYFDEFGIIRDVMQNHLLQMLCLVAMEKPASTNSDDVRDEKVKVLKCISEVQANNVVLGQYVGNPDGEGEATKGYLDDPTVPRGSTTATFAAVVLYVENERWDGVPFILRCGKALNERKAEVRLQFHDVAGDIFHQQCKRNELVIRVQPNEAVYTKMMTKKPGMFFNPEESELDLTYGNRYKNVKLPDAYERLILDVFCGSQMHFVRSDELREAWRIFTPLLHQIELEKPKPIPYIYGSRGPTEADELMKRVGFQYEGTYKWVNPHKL

Sequence of HpG6PD enzyme (P56110 whole entry): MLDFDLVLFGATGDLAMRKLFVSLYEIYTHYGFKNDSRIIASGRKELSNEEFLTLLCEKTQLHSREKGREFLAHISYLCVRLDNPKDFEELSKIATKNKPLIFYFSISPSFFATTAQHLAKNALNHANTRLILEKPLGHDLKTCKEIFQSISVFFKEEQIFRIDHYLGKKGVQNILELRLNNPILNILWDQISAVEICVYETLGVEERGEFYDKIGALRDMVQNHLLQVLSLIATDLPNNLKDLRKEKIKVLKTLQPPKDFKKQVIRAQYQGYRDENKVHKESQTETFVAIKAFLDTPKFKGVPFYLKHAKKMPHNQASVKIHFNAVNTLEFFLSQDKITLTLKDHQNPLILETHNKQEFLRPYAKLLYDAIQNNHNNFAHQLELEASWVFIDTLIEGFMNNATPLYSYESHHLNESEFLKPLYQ

## COc1cc(CCC(=O)O)ccc1OCc1ccc(-c2ccccc2C#N)cc1 [JMM-3]
[1]
  HpG6PD Inhibition (%) at (400 μM): 67%
HpG6PD enzyme
  inhibition at 800 µM: 80%
  IC50: 304 µM
Recombinant human HsG6PD
  inhibition at 400 µM: 3%

## O=C(O)CCc1ccc(NC(=O)CSc2nc3ccccc3[nH]2)cc1 [MGD-1]
[1]
  HpG6PD Inhibition (%) at (400 μM): 50%
HpG6PD enzyme; incubation for 2 h at 37 °C
  reduction of HpG6PD activity: 80%
HpG6PD enzyme
  IC50: 465 µM
Recombinant human HsG6PD
  inhibition at 400 µM: 4%

## O=C(O)CCc1ccc(NC(=O)CSc2nc3ccccc3o2)cc1 [MGD-2]
[1]
  HpG6PD Inhibition (%) at (400 μM): 55%
HpG6PD enzyme; incubation for 2 h at 37 °C
  reduction of HpG6PD activity: 72%
HpG6PD enzyme
  IC50: 340 µM
Recombinant human HsG6PD
  inhibition at 400 µM: 2%

## COc1cc(/C=C2\SC(=O)NC2=O)ccc1OCCN1CCCCC1 [TDA-1]
[1]; 400 µM
  HpG6PD Inhibition (%) at (400 μM): 91%
HpG6PD enzyme; by 500 µM, incubation for 2 h at 37 °C
  loss of HpG6PD activity: total loss of activity
HpG6PD enzyme
  IC50: 204 µM
Recombinant human HsG6PD
  inhibition at 400 µM: 10%

## COc1ccc(/C=C2\SC(=O)NC2=O)cc1OCc1cccc2ccccc12 [YGC-1]
[1]
  HpG6PD Inhibition (%) at (400 μM): 84%
HpG6PD enzyme
  inhibition at 800 µM: 91%
  IC50: 310 µM
Recombinant human HsG6PD
  inhibition at 400 µM: 8%

## COc1ccc(/C=C2\SC(=O)NC2=O)cc1OCc1cccc(-c2ccccc2)c1 [YGC-3]
[1]
  HpG6PD Inhibition (%) at (400 μM): 50%
HpG6PD enzyme
  inhibition at 800 µM: 80%
  IC50: 383 µM
Recombinant human HsG6PD
  inhibition at 400 µM: 0%

## COc1ccc(/C=C2\SC(=O)NC2=O)cc1Oc1nc2ccccc2[nH]1 [YGC-4]
[1]
  HpG6PD Inhibition (%) at (400 μM): 44%
HpG6PD enzyme
  inhibition at 800 µM: 80%
  IC50: 500 µM
Recombinant human HsG6PD
  inhibition at 400 µM: 18%
